Laboratory results published in paper PMC5152921, “Evolutionary and Functional Diversification of the Vitamin D Receptor-Lithocholic Acid Partnership” (PLoS ONE, 2016).

What was measured:
Experiment in all cases: Transient transactivation assay (XREM-Luc, HepG2)
Format in all cases: cell-based
Zebrafish VDRα = target: T1, Zebrafish VDRα (Danio rerio, UniProt Q9PTN2); conditions: 100 μM LCA
T1 construct: 89.7 ng/well of full-length pSG5-VDR was co-transfected; expressed in transfected cells; host or cells: HepG2
T1 sequence (Q9PTN2 1-453): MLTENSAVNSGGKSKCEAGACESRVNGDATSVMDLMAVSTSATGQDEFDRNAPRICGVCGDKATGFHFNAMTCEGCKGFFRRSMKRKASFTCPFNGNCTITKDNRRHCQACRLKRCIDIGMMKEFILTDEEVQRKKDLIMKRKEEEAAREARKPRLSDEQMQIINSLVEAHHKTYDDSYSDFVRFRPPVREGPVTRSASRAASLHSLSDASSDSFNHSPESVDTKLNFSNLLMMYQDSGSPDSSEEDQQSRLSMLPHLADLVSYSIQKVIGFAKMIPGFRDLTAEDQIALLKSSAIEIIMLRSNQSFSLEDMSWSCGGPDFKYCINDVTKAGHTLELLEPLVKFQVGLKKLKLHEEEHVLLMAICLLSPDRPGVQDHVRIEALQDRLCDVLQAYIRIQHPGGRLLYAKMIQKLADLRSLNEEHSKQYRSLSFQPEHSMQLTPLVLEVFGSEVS
Protocol: (§1) HepG2 cells (American Type Culture Collection #HB-8065) were cultured in T75 flasks with vented caps (Corning Life Sciences, Corning, NY) using Minimum Essential Medium (MEM) with phenol red supplemented with 10% fetal bovine serum, 1 mM sodium pyruvate, and 1X MEM non-essential amino acids. Cells were maintained following standard protocols in a 5% CO2 incubator set at 37°C, and split when 80–90% confluent.
(§2) For the transient transactivation assays, HepG2 cells were seeded in 96-well tissue culture plates at a density of 2.5x10^4 cells per well in complete phenol red-free MEM, and allowed to recover overnight. Transfections were performed the following day using Lipofectamine 2000 (Life Technologies, Grand Island, NY) as described previously. For functional comparisons, 89.7 ng/well of full-length pSG5-VDR was co-transfected with 19.2 ng/well human XREM-Luc reporter and 4.5 ng/well of pRL-CMV as an internal luciferase control. Coregulator studies included the addition of 18.3 ng/well of human coregulators (pCDNA-RXRWT, pCDNA-RXRAF2, pSG5-SRC1, pSG5-GRIP1 or pSG5-ACTR) where indicated. […] Controls include 120 nM 1,25D3 as a positive control, and ethanol as a vehicle control. Twenty-four hours post-exposure cells were tested for luciferase activity using the Dual-Glo Luciferase Assay System (Promega Corporation, Madison, WI) according to the manufacturer’s protocols. Luciferase data were first normalized to the pRL-CMV internal luciferase control. LCA-mediated VDR transactivation (fold activation) was calculated as the ratio of the VDR luciferase response relative to the empty vector control. To calculate the impact of coregulators on VDR transactivation, VDR response in the presence of coregulators was normalized to VDR alone. All experiments were repeated 3 times and conducted as groups of 4 replicate wells. VDR response in the absence of coregulators was analyzed using a 1-way ANOVA followed by Dunnett’s multiple comparisons test. To examine the effects of different coregulators on VDR activation, data were analyzed using a 2-way ANOVA followed by Bonferroni’s multiple comparisons test in GraphPad Prism (GraphPad Inc, San Diego, CA).

Medaka VDRβ = target: T2, Medaka VDRβ (Oryzias latipes, UniProt B2CCA1); conditions: 100 μM LCA
T2 sequence (B2CCA1 1-425): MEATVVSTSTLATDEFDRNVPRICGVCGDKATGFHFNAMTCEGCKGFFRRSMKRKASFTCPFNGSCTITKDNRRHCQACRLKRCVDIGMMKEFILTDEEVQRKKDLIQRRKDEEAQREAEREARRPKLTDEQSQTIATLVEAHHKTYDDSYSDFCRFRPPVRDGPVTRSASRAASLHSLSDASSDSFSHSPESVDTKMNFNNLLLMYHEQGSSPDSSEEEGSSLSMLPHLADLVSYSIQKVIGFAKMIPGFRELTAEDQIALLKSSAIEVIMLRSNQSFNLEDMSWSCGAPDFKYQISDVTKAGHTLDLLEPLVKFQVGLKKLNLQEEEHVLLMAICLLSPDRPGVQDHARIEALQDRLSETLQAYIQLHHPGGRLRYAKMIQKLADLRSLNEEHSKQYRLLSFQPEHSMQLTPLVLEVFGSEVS
T2 sequence (P19793 1-462 partner): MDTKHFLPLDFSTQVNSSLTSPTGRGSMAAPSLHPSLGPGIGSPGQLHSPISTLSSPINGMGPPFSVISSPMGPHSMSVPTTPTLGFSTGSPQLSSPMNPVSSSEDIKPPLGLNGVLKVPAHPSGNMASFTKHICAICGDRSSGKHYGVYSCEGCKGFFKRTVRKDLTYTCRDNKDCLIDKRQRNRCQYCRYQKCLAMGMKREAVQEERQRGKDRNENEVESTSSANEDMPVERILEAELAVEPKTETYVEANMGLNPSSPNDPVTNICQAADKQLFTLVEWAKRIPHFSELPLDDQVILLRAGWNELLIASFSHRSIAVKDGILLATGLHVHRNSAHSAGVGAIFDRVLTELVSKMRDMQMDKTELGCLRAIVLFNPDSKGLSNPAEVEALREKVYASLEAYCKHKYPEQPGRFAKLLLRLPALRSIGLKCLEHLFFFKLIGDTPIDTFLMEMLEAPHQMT
Protocol: as §1, §2

Medaka VDRα = Medaka VDRα (Oryzias latipes, UniProt B2CCA0); conditions: 100 μM LCA
Medaka VDRα, sequence (B2CCA0 entry or part of it, one chain of several): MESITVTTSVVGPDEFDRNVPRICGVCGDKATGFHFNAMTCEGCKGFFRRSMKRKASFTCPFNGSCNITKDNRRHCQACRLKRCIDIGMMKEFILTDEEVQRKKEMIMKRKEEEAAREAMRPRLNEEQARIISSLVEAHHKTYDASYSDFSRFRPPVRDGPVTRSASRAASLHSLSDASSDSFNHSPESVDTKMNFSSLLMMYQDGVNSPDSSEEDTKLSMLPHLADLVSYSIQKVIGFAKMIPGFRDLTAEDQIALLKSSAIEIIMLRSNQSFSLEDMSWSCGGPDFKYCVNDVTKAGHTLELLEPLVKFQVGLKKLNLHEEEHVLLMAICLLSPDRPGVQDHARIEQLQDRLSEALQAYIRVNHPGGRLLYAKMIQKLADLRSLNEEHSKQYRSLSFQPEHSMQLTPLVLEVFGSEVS
Protocol: as §1, §2

Zebrafish VDRβ = target: T3, Zebrafish VDRβ (Danio rerio, UniProt Q1L673); parameters: expressed in transfected cells; host or cells: HepG2; conditions: 100 μM LCA; co-transfected human RXRWT; vs VDR alone
T3 sequence (Q1L673 1-422): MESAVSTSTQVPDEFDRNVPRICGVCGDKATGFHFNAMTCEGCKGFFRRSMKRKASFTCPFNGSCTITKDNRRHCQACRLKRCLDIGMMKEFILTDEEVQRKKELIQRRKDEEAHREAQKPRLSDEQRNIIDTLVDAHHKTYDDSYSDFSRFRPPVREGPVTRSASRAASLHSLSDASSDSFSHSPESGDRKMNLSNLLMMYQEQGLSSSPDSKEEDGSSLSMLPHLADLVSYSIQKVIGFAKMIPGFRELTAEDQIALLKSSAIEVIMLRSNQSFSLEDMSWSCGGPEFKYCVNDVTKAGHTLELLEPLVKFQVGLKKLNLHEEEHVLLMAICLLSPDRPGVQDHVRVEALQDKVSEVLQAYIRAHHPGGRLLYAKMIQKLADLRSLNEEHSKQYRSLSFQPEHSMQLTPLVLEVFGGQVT
Protocol: as §1
For the transient transactivation assays, HepG2 cells were seeded in 96-well tissue culture plates at a density of 2.5x10^4 cells per well in complete phenol red-free MEM, and allowed to recover overnight. Transfections were performed the following day using Lipofectamine 2000 (Life Technologies, Grand Island, NY) as described previously. […] LCA-mediated VDR transactivation (fold activation) was calculated as the ratio of the VDR luciferase response relative to the empty vector control. […] VDR response in the absence of coregulators was analyzed using a 1-way ANOVA followed by Dunnett’s multiple comparisons test. To examine the effects of different coregulators on VDR activation, data were analyzed using a 2-way ANOVA followed by Bonferroni’s multiple comparisons test in GraphPad Prism (GraphPad Inc, San Diego, CA).

[1] = co-transfected human RXRWT, vs VDR alone
[2] = compared to either coregulator individually

## C[C@H](CCC(=O)O)[C@H]1CC[C@H]2[C@@H]3CC[C@@H]4C[C@H](O)CC[C@]4(C)[C@H]3CC[C@]12C [LCA, 5β-cholanic acid-3α-ol]
Zebrafish VDRα; [1]
  Effect of exogenous human RXRWT on VDR transactivation: significantly enhanced transactivation
Zebrafish VDRα; [2]
  Effect of RXRWT+SRC1 or RXRWT+GRIP1 on VDR transactivation: significantly enhanced VDR transactivation
Medaka VDRβ; [1]
  Effect of exogenous human RXRWT on VDR transactivation: significantly enhanced transactivation
Medaka VDRβ; [2]
  Effect of RXRWT+SRC1 or RXRWT+GRIP1 on VDR transactivation: significantly enhanced VDR transactivation
Medaka VDRα; [1]
  Effect of exogenous human RXRWT on VDR transactivation: significantly enhanced transactivation
Medaka VDRα; [2]
  Effect of RXRWT+SRC1 or RXRWT+GRIP1 on VDR transactivation: significantly enhanced VDR transactivation
Zebrafish VDRβ
  Effect of exogenous human RXRWT on VDR transactivation: significantly enhanced transactivation
